The source of these data is patent US12729181B2, “Compounds, compositions, and methods for modulating calcium ion homeostasis” (The Regents of the University of California, priority 2020, dated 2026).

One series relates to tre^tc318 mutant embryos. The experiment in a line: Compound rescue screen: restoration of persistent heartbeat in tremblor embryos. The series is classed as in vivo, Zebrafish. The settings on record: for responders at 10 µM / responders at 15 µM / responders at 20 µM: Danio rerio, 48 h; for responders at 10 µM: read-out: Rescue at 10 uM (%); for responders at 15 µM: read-out: Rescue at 15 uM (%); for responders at 20 µM: read-out: Rescue at 20 uM (%); for Rescue at 15 uM (%): 15 uM from 30 hpf. The protocol:
Zebrafish of the mutant line tremblor (tre^tc318) were maintained and bred as described previously in the literature. C. f. Langenbacher A D, et al., PNAS, 2005, 102(49), 17699-17704.
Exemplary compounds were screened for their ability to partially or completely restore persistent heartbeat in tre^tc318 embryos. 10 tre^tc318 mutant embryos were placed in each well of a 24-well plate and raised in the presence of individual compounds at various concentrations (5, 10, 15 and 20 μM) from 30 hpf. Cardiac function was analyzed by visual inspection at 2 dpf. The hearts of tre^tc318 embryos manifest a chaotic movement resembling cardiac fibrillation with sporadic contractions. Compounds that elicited persistent coordinated cardiac contractions were validated by rescreening at least once on another 10 tre^tc318 mutant embryos.

In the next series the test system is VDAC2. The experiment in a line: Binding of efsevin to VDAC2.
The test system of the next series is cardiomyocytes. The series is described as follows: Ca sparks, Ca waves and contractions in cardiomyocytes. The series is classed as cell-based.
A short description of series [1]: Metabolic stability in vivo.
Setting [2] is: cardiac function by visual inspection at 2 dpf, 10 embryos per well.

In the case of `CCOC(=O)C1=CCN(S(=O)(=O)c2ccc(C)cc2)C1c1ccccc1` (stereo not shown) [FS001, efsevin, reference compound], in the series on tre^tc318 mutant embryos, the responders at 10 µM turned out to be 58%, the responders at 15 µM came to 80% and the responders at 20 µM came to 45%. Further, in the series on tre^tc318 mutant embryos (chemical suppressor screen on zebrafish tremblor embryos), the “activity to restore coordinated contractions in tremblor” value is “potent activity to restore coordinated contractions in tremblor”. Moreover, in the series on VDAC2, the “binding to VDAC2” value is “bind to VDAC2”. The “effect on Ca overload-induced Ca waves and contractions” value with cardiomyocytes is “inhibits Ca+overload-induced erratic Ca^+ waves and irregular contractions”. Further, the “metabolic stability in vivo” value in series [1] is given as “poor metabolic stability in vivo”.

In the case of `CCOC(=O)C1=CCN(S(=O)(=O)c2ccc(Br)cc2)C1c1cccc(Br)c1` (stereo not shown) [FS094], in the series on tre^tc318 mutant embryos, the responders at 10 µM amounted to 11%, the responders at 15 µM was determined as 75% and the responders at 20 µM is 25%.

`CCOC(=O)C1=CCN(S(=O)(=O)c2ccc(Br)cc2)C1c1cccc(F)c1` (stereo not shown) [FS095]: in the series with tre^tc318 mutant embryos, the responders at 10 µM is 40%.

With `CCOC(=O)C1=CCN(S(=O)(=O)c2ccc(Br)cc2)C1c1cccc(C)c1` (stereo not shown) [FS096], the responders at 10 µM in the series with tre^tc318 mutant embryos came to 22%.

Turning to `CCOC(=O)C1=CCN(S(=O)(=O)c2ccc(Cl)cc2)C1c1ccc(F)cc1` (stereo not shown) [FS098], in the series with tre^tc318 mutant embryos, the responders at 10 µM is 40%, the responders at 15 µM amounted to 44% and the responders at 20 µM came to 89%.

As for `CCOC(=O)C1=CCN(S(=O)(=O)c2ccc(Br)cc2)C1c1ccc(Cl)cc1` (stereo not shown) [FS099], in the series on tre^tc318 mutant embryos, the responders at 10 µM came to 0% and the responders at 15 µM turned out to be 33%.

Consider `CCOC(=O)C1=CCN(S(=O)(=O)c2ccc(Br)cc2)C1c1ccc(Br)cc1` (stereo not shown) [FS100], for which, in the series on tre^tc318 mutant embryos, the responders at 10 µM stood at 0% and the responders at 15 µM came to 33%.

As to `CCOC(=O)C1=CCN(S(=O)(=O)c2ccc(Br)cc2)C1c1ccc(F)cc1` (stereo not shown) [FS101], the responders at 10 µM in the series with tre^tc318 mutant embryos was 20%.

For `CCOC(=O)C1=CCN(S(=O)(=O)c2ccc(Br)cc2)C1c1ccc(C)cc1` (stereo not shown) [FS102], the responders at 10 µM with tre^tc318 mutant embryos is 0%.

On to `CCOC(=O)C1=CCN(S(=O)(=O)c2ccc(Br)cc2)C1c1ccccc1` (stereo not shown) [FS104], for which, in the series on tre^tc318 mutant embryos (10 uM from 30 hpf, cardiac function by visual inspection at 2 dpf, 10 embryos per well), the “Rescue at 10 uM (%)” value amounted to 60%. Also, in the series with tre^tc318 mutant embryos (setting [2]), the “Rescue at 15 uM (%)” value worked out at 50%. In the series with tre^tc318 mutant embryos (20 uM from 30 hpf, cardiac function by visual inspection at 2 dpf, 10 embryos per well), the “Rescue at 20 uM (%)” value is listed as 60%.

In the case of `CCOC(=O)C1=CCN(S(=O)(=O)c2ccc(F)cc2)C1c1cccc(Cl)c1` (stereo not shown) [FS114], the responders at 15 µM in the series on tre^tc318 mutant embryos is 22%.

As for `CCOC(=O)C1=CCN(S(=O)(=O)c2ccc(F)cc2)C1c1cccc(Br)c1` (stereo not shown) [FS115], the responders at 15 µM in the series on tre^tc318 mutant embryos was 30%.

Take `CCOC(=O)C1=CCN(S(=O)(=O)c2ccc(F)cc2)C1c1cccc(F)c1` (stereo not shown) [FS116]: in the series on tre^tc318 mutant embryos, the responders at 15 µM was 11%.

For `CCOC(=O)C1=CCN(S(=O)(=O)c2cccc(Cl)c2)C1c1ccc(Cl)c(Cl)c1` (stereo not shown) [FS118], in the series with tre^tc318 mutant embryos, the responders at 15 µM is 10%.

Take `CCOC(=O)C1=CCN(S(=O)(=O)c2cccc(Cl)c2)C1c1cccc(Br)c1` (stereo not shown) [FS120]: in the series with tre^tc318 mutant embryos, the responders at 15 µM was 56%.

Regarding `CCOC(=O)C1=CCN(S(=O)(=O)c2cccc(Cl)c2)C1c1cccc(F)c1` (stereo not shown) [FS121], the responders at 15 µM with tre^tc318 mutant embryos is 56%.

As to `CCOC(=O)C1=CCN(S(=O)(=O)c2cccc(Cl)c2)C1c1cccc(C)c1` (stereo not shown) [FS122], the responders at 15 µM in the series on tre^tc318 mutant embryos was 33%.

Consider `CCOC(=O)C1=CCN(S(=O)(=O)c2ccc(F)cc2)C1c1ccc(Cl)cc1` (stereo not shown) [FS123], for which the responders at 15 µM with tre^tc318 mutant embryos was 70%.

`CCOC(=O)C1=CCN(S(=O)(=O)c2ccc(F)cc2)C1c1ccc(Br)cc1` (stereo not shown) [FS124]: in the series on tre^tc318 mutant embryos, the responders at 15 µM was found to be 90%.

Take `CCOC(=O)C1=CCN(S(=O)(=O)c2cccc(Cl)c2)C1c1ccccc1` (stereo not shown) [FS132]: the responders at 15 µM with tre^tc318 mutant embryos is 88%.

For `CCOC(=O)C1=CCN(S(=O)(=O)c2cccc(F)c2)C1c1ccc(Cl)cc1` (stereo not shown) [FS133], the responders at 15 µM in the series with tre^tc318 mutant embryos is 78%.

With `CCOC(=O)C1=CCN(S(=O)(=O)c2cccc(F)c2)C1c1ccc(Br)cc1` (stereo not shown) [FS134], the responders at 15 µM in the series with tre^tc318 mutant embryos was determined as 60%.

Regarding `CCOC(=O)C1=CCN(S(=O)(=O)c2cccc(F)c2)C1c1ccc(F)cc1` (stereo not shown) [FS135], the responders at 15 µM with tre^tc318 mutant embryos was found to be 50%.

As for `CCOC(=O)C1=CCN(S(=O)(=O)c2cccc(Br)c2)C1c1ccc(Cl)cc1` (stereo not shown) [FS136], in the series with tre^tc318 mutant embryos, the responders at 15 µM came to 29%.

As for `CCOC(=O)C1=CCN(S(=O)(=O)c2cccc(Br)c2)C1c1ccc(Br)cc1` (stereo not shown) [FS137], the responders at 15 µM with tre^tc318 mutant embryos stood at 0%.

With `CCOC(=O)C1=CCN(S(=O)(=O)c2cccc(Br)c2)C1c1ccc(F)cc1` (stereo not shown) [FS138], the responders at 15 µM in the series on tre^tc318 mutant embryos stood at 50%.

For `CCOC(=O)C1=CCN(S(C)(=O)=O)C1c1ccc(Cl)cc1` (stereo not shown) [FS139], in the series on tre^tc318 mutant embryos (setting [2]), the “Rescue at 15 uM (%)” value amounted to 0%.

With `CCOC(=O)C1=CCN(S(C)(=O)=O)C1c1ccc(C)cc1` (stereo not shown) [FS140], the responders at 15 µM in the series on tre^tc318 mutant embryos was found to be 0%.

Take `CCOC(=O)C1=CCN(S(=O)(=O)c2ccc([N+](=O)[O-])cc2)C1c1ccc(C)cc1` (stereo not shown) [FS141]: in the series on tre^tc318 mutant embryos, the responders at 15 µM was 0%.

`CCOC(=O)C1=CCN(S(=O)(=O)c2ccc([N+](=O)[O-])cc2)C1c1ccccc1` (stereo not shown) [FS142]: the “Rescue at 15 uM (%)” value in the series with tre^tc318 mutant embryos (setting [2]) was 56%.

Turning to `CCOC(=O)C1=CCN(S(=O)(=O)c2ccc(C)cc2)C1c1cccs1` (stereo not shown) [FS147], the responders at 15 µM in the series on tre^tc318 mutant embryos was determined as 60%.

In the case of `CCOC(=O)C1=CCN(S(=O)(=O)c2ccccc2)C1c1ccccc1` (stereo not shown) [FS148], the responders at 15 µM in the series on tre^tc318 mutant embryos stood at 56%.
